Measured values published in patent US20250282768A1 (Janssen Pharmaceutica NV, priority 2022, published 2025).

Test system: p-IKKa levels in L363 (NIK translocated multiple myeloma) cells
Test: Assay 2: Effect of compounds on p-IKKa levels in L363 (NIK translocated multiple myeloma) cells
Type: cell-based
Details: Homo sapiens, L-363, 6 h, read-out: Assay 2 IC50 (nM), p-IKKa (Ser 176/180) in BAFF stimulated L363 cells with MG132, 6 h; average if tested more than once
Method: Assay 2: Effect of Compounds on p-IKKa Levels in L363 (NIK Translocated Multiple Myeloma) Cells
All compounds tested were dissolved and serially diluted in DMSO, 1:3 dilution for 11 points in an Echo compatible plate. 100% DMSO was added to columns 12 and 24 of the plate to serve as high and low signal controls. This compound plate was used to spot 20 nL of compound or DMSO into a Greiner 384 well TC plate (781080). The final DMSO concentration was 0.3% (v/v) in cell assays. Human L363 cells (ATCC) were cultured in RPM11640 medium supplemented with GlutaMax, non-essential amino acids, sodium pyruvate and 10% fetal bovine serum. Cells were routinely maintained at densities of 0.2×10^6 cells per ml—2×10^6 cells per mL at 37° C. in a humidified 5% CO2 atmosphere incubator. Cells were passaged twice a week splitting back to obtain the low density. The day before the assay, cells were washed twice in HBSS (Hank's Balanced Salt Solution), resuspended in Dulbecco's Modified Eagle Medium (DMEM)+0.5% IgG and protease free BSA (Jackson Immuno Research Laboratories), +/−250 ng/ml recombinant human B-cell activating factor (BAFF/BLyS/TNFSF13B) and incubated overnight at 37° C. in a humidified 5% CO2 atmosphere (bulk stimulation with or without BAFF). The next day, the cell concentration was adjusted to 1×10^7 cells/ml in DMEM+/−250 ng/ml BAFF +/−10 μM MG132 and plated at 10 μl/well into compound or DMSO spotted 384 well TC plates. Seeded cells were incubated at 37° C. in a humidified 5% CO2 atmosphere for 6 h. After 6 h, the plates were removed from the incubator and cell lysis was achieved by the addition of 2.5 μl 5×lysis buffer containing protease and phosphatase inhibitors, followed by shaking on a plate shaker at room temperature for 15 min. At the end of this incubation, lysed cells were sequentially treated and incubated with acceptor and donor bead mixes according to the manufacturer's protocol for a 1 plate/2-incubation suspension cell assay (AlphaLISA SureFire Ultra p-IKKa (Ser 176/180) Assay Kit (Perkin Elmer). Plates were read using an EnVision Multilabel Plate Reader (Perkin Elmer). Within an experiment, a concentration response curve for each compound was run in duplicate. The signal obtained in the test wells was normalized using high signal (BAFF stimulated cells, DMSO, MG132) and low signal (unstimulated cells, DMSO) controls. To determine the IC50, a sigmoidal curve was fitted to the plot of % inhibition versus Log10 compound concentration.

SMILES	IC50 [nM]
CN1CC[C@@H](n2cc(Nc3nccc(-c4cccc(-c5cc([C@]6(O)CCN(C)C6=O)on5)n4)n3)cn2)[C@H](F)C1 (single isomer, unassigned) [Example 202]	< 50
CN1CC[C@H](n2cc(Nc3nccc(-c4cccc(-c5cc([C@]6(O)CCN(C)C6=O)on5)n4)n3)cn2)C1 (single isomer, unassigned) [Example 203, (R)-3-Hydroxy-1-methyl-3-(3-(6-(2-((1-((*S)-1-methylpyrrolidin-3-yl)-1H-pyrazol-4-yl)amino)pyrimidin-4-yl)pyridin-2-yl)isoxazol-5-yl)pyrrolidin-2-one]	50 to 500
CN1CC[C@@](O)(c2cc(-c3cccc(-c4ccnc(N[C@@H]5CCCC[C@@H]5O)n4)n3)no2)C1=O (single isomer, unassigned) [Example 336]	> 500
CN1CC[C@@](O)(c2cc(-c3cccc(-c4ccnc(N[C@H]5CCCC[C@H]5O)n4)n3)no2)C1=O (single isomer, unassigned) [Example 337]	> 500
C[C@H]1OCC[C@@H]1Nc1nccc(-c2cccc(-c3cc([C@]4(O)CCN(C)C4=O)on3)n2)n1 (single isomer, unassigned) [Example 346]	50 to 500
C[C@@H]1OCC[C@@H]1Nc1nccc(-c2cccc(-c3cc([C@]4(O)CCN(C)C4=O)on3)n2)n1 (single isomer, unassigned) [Example 347]	50 to 500
C[C@H](Nc1nccc(-c2cccc(-c3cc([C@]4(O)CCN(C)C4=O)no3)n2)n1)c1cnn(C)c1 (single isomer, unassigned) [Example 400]	> 500
C[C@@H](Nc1nccc(-c2cccc(-c3cc([C@]4(O)CCN(C)C4=O)no3)n2)n1)c1cnn(C)c1 (single isomer, unassigned) [Example 401]	< 50
C[C@@H](Nc1nccc(-c2cccc(-c3cc([C@]4(O)CCN(C)C4=O)on3)n2)n1)c1ccn(C)n1 (single isomer, unassigned) [Example 404, (R)-3-Hydroxy-1-methyl-3-(3-(6-(2-(((*R)-1-(1-methyl-1H-pyrazol-3-yl)ethyl)amino)pyrimidin-4-yl)pyridin-2-yl)isoxazol-5-yl)pyrrolidin-2-one]	> 500
C[C@H](Nc1nccc(-c2cccc(-c3cc([C@]4(O)CCN(C)C4=O)on3)n2)n1)c1ccn(C)n1 (single isomer, unassigned) [Example 405, (R)-3-hydroxy-1-methyl-3-(3-(6-(2-(((*S)-1-(1-methyl-1H-pyrazol-3-yl)ethyl)amino)pyrimidin-4-yl)pyridin-2-yl)isoxazol-5-yl)pyrrolidin-2-one]	50 to 500
CN1CC[C@@](O)(c2cnn(-c3cccc(-c4ccnc(Nc5cnn(C)c5Cl)n4)n3)c2)C1=O (single isomer, unassigned) [Example 411, (*R)-3-(1-(6-(2-((5-Chloro-1-methyl-1H-pyrazol-4-yl)amino)pyrimidin-4-yl)pyridin-2-yl)-1H-pyrazol-4-yl)-3-hydroxy-1-methylpyrrolidin-2-one]	50 to 500
C[C@@H](CC(F)(F)F)Nc1nccc(-c2cccc(-c3cc([C@]4(O)CCN(C)C4=O)on3)n2)n1 (single isomer, unassigned) [Example 437, (R)-3-Hydroxy-1-methyl-3-(3-(6-(2-(((*S)-4,4,4-trifluorobutan-2-yl)amino)pyrimidin-4-yl)pyridin-2-yl)isoxazol-5-yl)pyrrolidin-2-one]	50 to 500
C[C@H](CC(F)(F)F)Nc1nccc(-c2cccc(-c3cc([C@]4(O)CCN(C)C4=O)on3)n2)n1 (single isomer, unassigned) [Example 438, (R)-3-Hydroxy-1-methyl-3-(3-(6-(2-(((*R)-4,4,4-trifluorobutan-2-yl)amino)pyrimidin-4-yl)pyridin-2-yl)isoxazol-5-yl)pyrrolidin-2-one]	50 to 500
CN1CC[C@@](O)(c2cc(-c3cccc(-c4ccnc(N[C@H]5CCSC5)n4)n3)no2)C1=O (single isomer, unassigned) [Example 457, (R)-3-Hydroxy-1-methyl-3-(3-(6-(2-(((*S)-tetrahydrothiophen-3-yl)amino)pyrimidin-4-yl)pyridin-2-yl)isoxazol-5-yl)pyrrolidin-2-one]	50 to 500
CN1CC[C@@](O)(c2cc(-c3cccc(-c4ccnc(N[C@@H]5CCSC5)n4)n3)no2)C1=O (single isomer, unassigned) [Example 458, (R)-3-Hydroxy-1-methyl-3-(3-(6-(2-(((*R)-tetrahydrothiophen-3-yl)amino)pyrimidin-4-yl)pyridin-2-yl)isoxazol-5-yl)pyrrolidin-2-one]	50 to 500
CO[C@H](CNc1nccc(-c2cccc(-c3cc([C@]4(O)CCN(C)C4=O)on3)n2)n1)C(F)(F)F (single isomer, unassigned) [Example 462, (R)-3-Hydroxy-1-methyl-3-(3-(6-(2-(((*R)-3,3,3-trifluoro-2-methoxypropyl)amino)pyrimidin-4-yl)pyridin-2-yl)isoxazol-5-yl)pyrrolidin-2-one]	50 to 500
CO[C@@H](CNc1nccc(-c2cccc(-c3cc([C@]4(O)CCN(C)C4=O)on3)n2)n1)C(F)(F)F (single isomer, unassigned) [Example 463, (R)-3-Hydroxy-1-methyl-3-(3-(6-(2-(((*S)-3,3,3-trifluoro-2-methoxypropyl)amino)pyrimidin-4-yl)pyridin-2-yl)isoxazol-5-yl)pyrrolidin-2-one]	50 to 500
CO[C@H]1COCC[C@@H]1Nc1nccc(-c2cccc(-c3cc([C@]4(O)CCN(C)C4=O)on3)n2)n1 (stereo in doubt) [Example 355, (R)-3-Hydroxy-3-(3-(6-(2-(((trans)-3-methoxytetrahydro-2H-pyran-4-yl)amino)pyrimidin-4-yl)pyridin-2-yl)isoxazol-5-yl)-1-methylpyrrolidin-2-one]	> 500
CN1C(=O)[C@](O)(c2cc(-c3cccc(-c4ccnc(Nc5ccn(C)n5)n4)n3)no2)C[C@H]1C(F)(F)F [Example 1, (3R,5S)-3-Hydroxy-1-methyl-3-(3-(6-(2-((1-methyl-1H-pyrazol-3-yl)amino)pyrimidin-4-yl)pyridin-2-yl)isoxazol-5-yl)-5-(trifluoromethyl)pyrrolidin-2-one]	50 to 500
CN1CC[C@@](O)(c2cc(-c3cc(C(F)(F)F)cc(-c4ccnc(Nc5ccn(C)n5)n4)n3)no2)C1=O [Example 2, (R)-3-Hydroxy-1-methyl-3-(3-(6-(2-((1-methyl-1H-pyrazol-3-yl)amino)pyrimidin-4-yl)-4-(trifluoromethyl)pyridin-2-yl)isoxazol-5-yl)pyrrolidin-2-one]	< 50
CN1CC(F)(F)[C@@](O)(c2cc(-c3cccc(-c4ccnc(Nc5cnn(C)c5)n4)n3)no2)C1=O [Example 3, (R)-4,4-Difluoro-3-hydroxy-1-methyl-3-(3-(6-(2-((1-methyl-1H-pyrazol-4-yl)amino)pyrimidin-4-yl)pyridin-2-yl)isoxazol-5-yl)pyrrolidin-2-one]	< 50
CN1CC[C@@](O)(c2cc(-c3cc(C(F)(F)F)cc(-c4ccnc(Nc5cnn(C)c5)n4)n3)no2)C1=O [Example 4, (R)-3-Hydroxy-1-methyl-3-(3-(6-(2-((1-methyl-1H-pyrazol-4-yl)amino)pyrimidin-4-yl)-4-(trifluoromethyl)pyridin-2-yl)isoxazol-5-yl)pyrrolidin-2-one]	< 50
[2H]C1([2H])N(C)C(=O)[C@](O)(c2cc(-c3cccc(-c4ccnc(Nc5cnn(C)c5)n4)n3)no2)C1([2H])[2H] [Example 5, (R)-3-Hydroxy-1-methyl-3-(3-(6-(2-((1-methyl-1H-pyrazol-4-yl)amino)pyrimidin-4-yl)pyridin-2-yl)isoxazol-5-yl)pyrrolidin-2-one-4,4,5,5-d4]	< 50
CN1C(=O)[C@](O)(c2cc(-c3cccc(-c4ccnc(Nc5cnn(C)c5)n4)n3)no2)C[C@H]1C(F)(F)F [Example 6, (3R,5S)-3-Hydroxy-1-methyl-3-(3-(6-(2-((1-methyl-1H-pyrazol-4-yl)amino)pyrimidin-4-yl)pyridin-2-yl)isoxazol-5-yl)-5-(trifluoromethyl)pyrrolidin-2-one]	50 to 500
[2H]C1([2H])N(C)C(=O)[C@](O)(c2cc(-c3cccc(-c4ccnc(Nc5cnn(CC)c5)n4)n3)no2)C1([2H])[2H] [Example 7, (R)-3-(3-(6-(2-((1-Ethyl-1H-pyrazol-4-yl)amino)pyrimidin-4-yl)pyridin-2-yl)isoxazol-5-yl)-3-hydroxy-1-methylpyrrolidin-2-one-4,4,5,5-d4]	< 50
